Data reported in patent US20150174209A1, “INSULIN-PRAMLINTIDE COMPOSITIONS AND METHODS FOR MAKING AND USING THEM” (AMYLIN PHARMACEUTICALS. LLC, priority 2012, published 2015).

Experiments:
[1] = test system: healthy subjects; assay: Glucose and C-peptide minimal models and minimal model of gastrointestinal absorption on aggregated Woerle data; design: species or system human
Text: The data published in Woerle et al. (December, 2008) Diabetes Care 31(12): 2325-2331, where a dual tracer approach was used in healthy subjects to estimate the rate of appearance of glucose during the meal and hepatic glucose production during placebo/pramlintide were used in an aggregated fashion (individual data not available, FIG. 13A). […] Subsequently, the minimal model of gastrointestinal absorption (FIG. 37) was used to quantify the changes of the rate of appearance of ingested glucose due to pramlintide. […] This finding was incorporated into the Healthy State Simulator and predictions were successfully tested against Woerle et al data FIG. 38. We also successfully tested the prediction of 2 h postprandial glucose of the Type 1 Diabetes Simulator (illustrated in FIG. 18) (incorporating the new kmax) against the data by Kovatchev B P, et al., Pramlintide reduces the risks associated with glucose variability in type 1 diabetes. Diabetes Technol Ther. 2008 October; 10(5):391-6. The new model was finally incorporated into our model predictive control algorithm and in silico experiment on the Type 1 diabetes.

[2] = test system: type 1 diabetic subjects; assay: Identification of the gastro-intestinal tract (oral glucose absorption) model on Ra meal data of the Woerle T1D database; design: species or system human; settings: 30 μg pramlintide s.c. with meal containing 50 g glucose, 15 type 1 diabetic subjects
Method: The database was made up of 15 type 1 diabetic subjects (8 men and 7 women, 37±2 years of age, body weight 76±3 kg) (this is a database for each individual patient participating in the study published in Woerle et al. (December, 2008) Diabetes Care 31(12): 2325-2331, in which pramlintide was given to TI patients and labeled glucose appearance from meal to blood was measured; Woerle reported the effect of pramlintide on gastric emptying and thus glucose appearance in the blood after a meal in patients with type 1 diabetes). “Ra meal data” means the “glucose rate of appearance (Ra) of ingested glucose”; “Ra meal” refers to measurement in response to a meal (ingested), versus after say an intraduodenal injection of glucose.
Subjects were studied on 2 occasions: hyperglycemia with (PRAM) and without (PBO) 30 μg of pramlintide (Amylin Pharmaceuticals, San Diego, Calif.), injected subcutaneously in the lower abdominal wall with the standardized meal containing 50 g of glucose. Over the initial 90 min of the postprandial period, blood samples were taken at 15 min intervals and thereafter at 30-min intervals until completion of the experiment at 330 min.
The model has been numerically identified on placebo Ra meal data using nonlinear weighted least-squares estimator. Identification on pramlintide Ra meal data have required the use of Bayesian estimator in order to achieve a precise estimates of model parameters.
Identification of the gastro-intestinal tract model on Woerle Ra meal data has provided individual parameters estimates for the 15 T1D subjects in presence or absence of pramlintide. Then individual variation for each parameter has been calculated as: […]
We reduced the standard deviations of the variation of the parameters to the 30% of their values due to the small number of subjects available:
Then 100 virtual parameters variations were generated from the distribution: […]

[3] = test system: patients with type 1 diabetes mellitus; settings: in vivo, sc; cited from earlier work
[4] = Chemical stability of pramlintide and human insulin co-formulated in SYMLIN placebo buffer pH 4.0 (RP-HPLC purity; FIGS. 35, 36); settings: for stability in co-formulation: 25 degrees Centigrade, SYMLIN placebo buffer pH 4.0, 13 week study
Method: Purity was determined via RP-HPLC and is normalized to time=0 purity.

[5] = pH 2-3; 4C; cited from earlier work
[6] = cited from earlier work

**Q.** Which “effect on insulin sensitivity and beta-cell function” value ([1]; glucose and C-peptide minimal models) does the source give for `CC[C@H](C)[C@H](NC(=O)[C@@H]1CCCN1C(=O)CNC(=O)[C@H](Cc1ccccc1)NC(=O)[C@H](CC(N)=O)NC(=O)[C@H](CC(N)=O)NC(=O)[C@H](CO)NC(=O)[C@H](CO)NC(=O)[C@H](Cc1c[nH]cn1)NC(=O)[C@@H](NC(=O)[C@H](CC(C)C)NC(=O)[C@H](Cc1ccccc1)NC(=O)[C@H](CC(N)=O)NC(=O)[C@H](C)NC(=O)[C@H](CC(C)C)NC(=O)[C@H](CCCNC(=N)N)NC(=O)[C@H](CCC(N)=O)NC(=O)[C@@H](NC(=O)[C@H](C)NC(=O)[C@@H]1CSSC[C@H](NC(=O)[C@@H](N)CCCCN)C(=O)N[C@@H](CC(N)=O)C(=O)N[C@@H]([C@@H](C)O)C(=O)N[C@@H](C)C(=O)N[C@@H]([C@@H](C)O)C(=O)N1)[C@@H](C)O)C(C)C)C(=O)N[C@@H](CC(C)C)C(=O)N1CCC[C@H]1C(=O)N1CCC[C@H]1C(=O)N[C@H](C(=O)N[C@@H](CC(N)=O)C(=O)N[C@H](C(=O)NCC(=O)N[C@@H](CO)C(=O)N[C@@H](CC(N)=O)C(=O)N[C@H](C(=O)N[C@@H](Cc1ccc(O)cc1)C(N)=O)[C@@H](C)O)C(C)C)[C@@H](C)O` [pramlintide] here?
**A.** no effect

**Q.** What about the “decrease of parameter kmax (maximum gastric emptying)” value ([1]; minimal model of gastrointestinal absorption) of the same compound?
**A.** ⅔

**Q.** And the “b (model parameter estimate, mean)” value [2]?
**A.** 0.985

**Q.** And the “c (model parameter estimate, mean)” value [2]?
**A.** 0.537

**Q.** And the “kabs (model parameter estimate, mean)” value [2]?
**A.** 0.020

**Q.** What about the “kmin (model parameter estimate, mean)” value [2] of the same compound?
**A.** 0.005

**Q.** And the “kmax (model parameter estimate, mean)” value ([2]; Bayesian estimator)?
**A.** 0.041

**Q.** And the “effect of mixing with short- or long-acting insulin in the same syringe on pharmacodynamics of glucose and pharmacokinetics of insulin or pramlintide” value [3]?
**A.** did not affect

**Q.** For “human insulin: regular human hormone with 21 amino acid A chain (SEQ ID NO:2) and 30 amino acid B chain (SEQ ID NO:3)”, which “purity loss during storage” value ([4]; 25 degrees C, insulin in co-formulations) is on record?
**A.** 40%

**Q.** And the stability in co-formulation [4]?
**A.** rapidly degrades

**Q.** What about the stability in co-formulation ([4]; listed as insulin) of the same compound?
**A.** unacceptable degradation

**Q.** What about the “formation of monodesamido-(A21)-insulin” value [5] of the same compound?
**A.** 1-2 % per month

**Q.** What about the “absorption after subcutaneous injection” value [6] of the same compound?
**A.** 15 to 60 min

**Q.** And the duration of action ([6]; subcutaneous injection)?
**A.** 5 to 9 h
